Results taken from PMC8421423, “Cellular model system to dissect the isoform-selectivity of Akt inhibitors” (Nature Communications, 2021).
Several values for one entry are separate records, joined by “and”; a condition that tells them apart may be missing. Equal entries are not always repeated. Where two headings read alike, the source gives them in different places.

How the values were obtained:
[1] = molecular target: Akt2 (Homo sapiens, UniProt P31751); assay: STK HTRF KinEASE activity-based assay (IC50)
[2] = molecular target: T1, Akt1 (Homo sapiens, UniProt P31749); assay: STK HTRF KinEASE activity-based assay (IC50)
[3] = molecular target: Akt3 (Homo sapiens, UniProt Q9Y243); assay: STK HTRF KinEASE activity-based assay (IC50)
Description: The biochemical half maximal inhibitory concentrations (IC50) were determined with the STK HTRF KinEASE assay (Cisbio) according to the manufactor’s instructions. Briefly: 5 µL Kinase solution and 2.5 µL inhibitor solution (8% DMSO in HTRF buffer) were incubated for 1 h before the reaction was started by addition of 2.5 µL starting solution containing ATP and substrate peptide. […] After reaction completion (Akt1: 60 min, Akt2: 20 min, Akt3: 15 min), 10 µL of stop solution were added. […] The quotient of both intensities were recorded at eight different inhibitor concentrations and data fit to a Hill 4-parameter equation with Quattro software suite (Quattro Research GmbH, Martinsried, Germany). Each reaction was performed in duplicates and at least three independent determinations of each IC50 were made.

[4] = test system: Ba/F3^myr-Akt2 cells; assay: CellTiter-Glo cell viability assay; conditions: for cell viability: CTG
[5] = test system: Ba/F3^myr-Akt1 cells; assay: CellTiter-Glo cell viability assay; conditions: for cell viability: CTG
[6] = test system: parental Ba/F3 cells; assay: CellTiter-Glo cell viability assay; format: cell-based, murine; conditions: for cell viability: CTG, parental
[7] = CellTiter-Glo cell viability assay; format: cell-based, murine; conditions: mouse, parental Ba/F3 cells, CTG, parental, single replicates
[8] = molecular target: T1, Akt1; assay: Cellular thermal shift assay (CETSA) in PANC1 cells; format: cell-based; parameters: purchased ProQinase #1379-0000-2
Description: Cells were seeded into 100 mm tissue culture plates (Sarstedt) (PANC1: 10^6 cells). After 24 h incubation, cells were treated with 1 µM of inhibitors or DMSO and were incubated for 4.5 h. Cells were washed twice with ice-cold PBS and then suspended in 1 mL PBS. Cells were collected and separated into equal volumes (100 µL). The aliquots were treated individually with different temperatures for 3 min, followed by a 3 min incubation at room temperature. Cell lysis was initiated by adding 100 µL RIPA buffer and 2 freeze-thaw cycles in liquid nitrogen. The lysates were centrifuged at 21,130×g for 20 min at room temperature. The supernatants were transferred into fresh, pre-cooled microcentrifuge tubes, and analyzed by western blot analysis as described above.

T1 sequence (P31749 whole entry): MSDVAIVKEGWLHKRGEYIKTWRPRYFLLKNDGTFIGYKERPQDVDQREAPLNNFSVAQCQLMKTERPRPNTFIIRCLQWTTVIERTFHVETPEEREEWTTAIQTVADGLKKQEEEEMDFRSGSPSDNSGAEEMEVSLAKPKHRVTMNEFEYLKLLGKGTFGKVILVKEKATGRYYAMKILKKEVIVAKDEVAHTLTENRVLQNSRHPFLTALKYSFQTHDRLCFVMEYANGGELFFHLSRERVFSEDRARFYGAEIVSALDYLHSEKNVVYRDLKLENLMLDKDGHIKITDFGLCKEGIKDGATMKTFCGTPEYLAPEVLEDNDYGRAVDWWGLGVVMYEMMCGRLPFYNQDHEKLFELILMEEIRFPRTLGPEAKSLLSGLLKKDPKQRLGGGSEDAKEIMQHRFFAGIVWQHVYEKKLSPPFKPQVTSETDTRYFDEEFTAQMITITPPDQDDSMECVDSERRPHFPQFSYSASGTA
Akt2, sequence (P31751 whole entry): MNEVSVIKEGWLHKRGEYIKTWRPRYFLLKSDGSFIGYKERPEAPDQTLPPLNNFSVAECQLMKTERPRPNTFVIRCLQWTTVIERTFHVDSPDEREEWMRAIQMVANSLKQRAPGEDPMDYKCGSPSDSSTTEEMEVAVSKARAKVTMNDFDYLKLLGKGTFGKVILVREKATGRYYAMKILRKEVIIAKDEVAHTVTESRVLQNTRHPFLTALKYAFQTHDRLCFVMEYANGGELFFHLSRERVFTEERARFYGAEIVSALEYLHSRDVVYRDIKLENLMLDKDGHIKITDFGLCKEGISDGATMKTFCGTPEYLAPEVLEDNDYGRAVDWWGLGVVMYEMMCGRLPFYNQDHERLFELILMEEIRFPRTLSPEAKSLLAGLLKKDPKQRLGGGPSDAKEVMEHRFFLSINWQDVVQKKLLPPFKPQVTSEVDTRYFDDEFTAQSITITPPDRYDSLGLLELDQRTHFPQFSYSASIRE
Akt3, sequence (Q9Y243 whole entry): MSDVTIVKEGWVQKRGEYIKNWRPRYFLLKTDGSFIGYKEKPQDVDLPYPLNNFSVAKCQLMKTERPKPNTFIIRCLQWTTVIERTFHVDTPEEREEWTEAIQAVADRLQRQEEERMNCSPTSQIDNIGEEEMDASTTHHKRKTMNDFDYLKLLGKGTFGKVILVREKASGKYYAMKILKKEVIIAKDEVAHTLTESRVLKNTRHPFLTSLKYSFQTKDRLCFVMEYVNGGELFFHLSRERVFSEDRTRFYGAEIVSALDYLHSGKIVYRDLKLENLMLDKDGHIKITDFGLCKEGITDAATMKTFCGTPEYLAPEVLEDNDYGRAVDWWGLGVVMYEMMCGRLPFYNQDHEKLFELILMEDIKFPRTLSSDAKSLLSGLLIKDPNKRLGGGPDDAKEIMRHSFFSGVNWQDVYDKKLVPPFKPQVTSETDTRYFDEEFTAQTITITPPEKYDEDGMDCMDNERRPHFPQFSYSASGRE

C=CC(=O)Nc1ccc2[nH]c(=O)n(C3CCN(Cc4ccc(-c5ncc(Cc6ccc(N)nc6)cc5-c5ccccc5)cc4)CC3)c2c1 [compound 20]
IC50 ([1]; HTRF IC50 Akt2, Mean, mean of replicates): 0.175 µM | IC50 ([1]; HTRF IC50 Akt2, individual determinations, single replicates): 0.177 µM and 0.317 µM and 0.174 µM | IC50 ([1]; IC50 Akt2, HTRF, ATP at KM, 1 h preincubation): 0.175 ± 0.002 µM | IC50 ([2]; HTRF IC50 Akt1, Mean, mean of replicates): 1.63 µM | IC50 ([2]; HTRF IC50 Akt1, individual determinations, single replicates): 1.63 µM and 1.81 µM and 1.45 µM | IC50 ([2]; IC50 Akt1, HTRF, ATP at KM, 1 h preincubation): 1.63 ± 0.148 µM | Log ratio IC50 [Akt] / IC50 [Akt], Akt1 / Akt2 ([2]; biochemical activity based assay, log units): 0.97 | IC50 ([3]; HTRF IC50 Akt3, individual determinations, single replicates): 0.144 µM and 0.176 µM and 0.24 µM and 0.188 µM | IC50 ([3]; IC50 Akt3, HTRF, ATP at KM, 1 h preincubation): 0.187 ± 0.04 µM | cell viability ([4]; myr-Akt2, 0.1 nM, single replicates, 0.0001 µM): 92.3 % of control and 98.1 % of control | cell viability ([4]; myr-Akt2, 5000 nM, single replicates, 5 µM): 26.9 % of control and 44.2 % of control | EC50 ([4]; Mus musculus, read-out: CTG BaF3myr-Akt2, Mean, mean of replicates): 4.09 µM | EC50 ([4]; Mus musculus, read-out: CTG BaF3myr-Akt2, individual determinations, single replicates): 2.95 µM | viability at 0.0001 µM ([4]; Mus musculus, read-out: cell viability, CTG, myr-Akt2, 0.1 nM, single replicates): 105% | viability at 5 µM ([4]; Mus musculus, read-out: cell viability, CTG, myr-Akt2, 5000 nM, single replicates): 25.6% | EC50 ([4]; read-out: CTG BaF3myr-Akt2, individual determinations, single replicates): 4.7 µM and 4.62 µM | cell viability ([5]; myr-Akt1, 0.1 nM, single replicates, 0.0001 µM): 108.0 % of control and 90.0 % of control | cell viability ([5]; myr-Akt1, 5000 nM, single replicates, 5 µM): 85.6 % of control and 91.8 % of control | EC50 ([5]; Mus musculus, read-out: CTG BaF3myr-Akt1, Mean, mean of replicates): 9.48 µM | EC50 ([5]; Mus musculus, read-out: CTG BaF3myr-Akt1, individual determinations, single replicates): 10 µM | viability at 0.0001 µM ([5]; Mus musculus, read-out: cell viability, CTG, myr-Akt1, 0.1 nM, single replicates): 102% | viability at 5 µM ([5]; Mus musculus, read-out: cell viability, CTG, myr-Akt1, 5000 nM, single replicates): 73.6% | Log ratio EC50 [Akt] / EC50 [Akt], Akt1 / Akt2 ([5]; cell viability assay Ba/F3 myr-Akt cells, log units): 0.27 | EC50 ([5]; read-out: CTG BaF3myr-Akt1, individual determinations, single replicates): 9.21 µM and 9.25 µM | cell viability ([6]; 0.1 nM, single replicates, 0.0001 µM): 98.4 % of control and 93.0 % of control | cell viability ([6]; 5000 nM, single replicates, 5 µM): 87.1 % of control and 85.4 % of control | EC50 ([6]; Mus musculus, BaF3, parental cells, mean of replicates, read-out: CTG BaF3, Mean): 12.1 µM | EC50 ([6]; Mus musculus, BaF3, parental cells, single replicates, read-out: CTG BaF3, individual determinations): 9.75 µM | EC50 ([6]; parental cells, single replicates, read-out: CTG BaF3, individual determinations): 9.72 µM and 18.6 µM | viability at 3 days, 0.0001 µM ([7]; 0.1 nM, read-out: cell viability): 104% | viability at 3 days, 5 µM ([7]; 5000 nM): 83.7% | tAkt1 % ([8]; CETSA PANC1, 1 µM, temperature 39.9): 100.00% | tAkt1 % ([8]; CETSA PANC1, 1 µM, temperature 43.5): 45.86% | tAkt1 % ([8]; CETSA PANC1, 1 µM, temperature 48.4): 43.98% | tAkt1 % ([8]; CETSA PANC1, 1 µM, temperature 53.8): 34.21% | tAkt1 % ([8]; CETSA PANC1, 1 µM, temperature 58.1): 23.05% | tAkt1 % ([8]; CETSA PANC1, 1 µM, temperature 61.4): 19.70% | tAkt1 % ([8]; CETSA PANC1, 1 µM, temperature 65.6): 13.05% | tAkt1 % ([8]; CETSA PANC1, 1 µM, temperature 70.9): 3.12% | tAkt1 % ([8]; CETSA PANC1, 1 µM, temperature 76): 1.54% | tAkt1 % ([8]; CETSA PANC1, 1 µM, temperature 79.9): 0.00% | tAkt1 % ([8]; CETSA PANC1, 2.5 µM, temperature 39.9): 100.00% | tAkt1 % ([8]; CETSA PANC1, 2.5 µM, temperature 43.5): 55.35% | tAkt1 % ([8]; CETSA PANC1, 2.5 µM, temperature 48.4): 36.29% | tAkt1 % ([8]; CETSA PANC1, 2.5 µM, temperature 53.8): 40.13% | tAkt1 % ([8]; CETSA PANC1, 2.5 µM, temperature 58.1): 29.31% | tAkt1 % ([8]; CETSA PANC1, 2.5 µM, temperature 61.4): 31.38% | tAkt1 % ([8]; CETSA PANC1, 2.5 µM, temperature 65.6): 3.90% | tAkt1 % ([8]; CETSA PANC1, 2.5 µM, temperature 70.9): -1.89% | tAkt1 % ([8]; CETSA PANC1, 2.5 µM, temperature 76): 0.94%
